Test results: ChEMBL document CHEMBL4699445, “Highly Potent Antiausterity Agents from Callistemon citrinus and Their Mechanism of Action against the PANC-1 Human Pancreatic Cancer Cell Line” (2020)
Activity calls are given as the source filed them. No cut-off for these calls is given here.

Key:
PANC-1 [1] = assay: Anticancer activity against human PANC-1 cells assessed as reduction in cell viability in nutrient-deprived medium after 24 hrs by WST-8 assay; type: functional
PANC-1 [2] = assay: Inhibition of PI3K/Akt/mTOR signaling in human PANC-1 cells assessed as decrease in PI3K p110beta level at 1 to 10 uM by Western blot analysis; type: cell-based; conditions: dose 1-10 µM, time 3-6 hrs, TDE = time-dependent effect
PANC-1 [3] = assay: Inhibition of PI3K/Akt/mTOR signaling in human PANC-1 cells assessed as decrease in Akt level measured after 3 to 6 hrs by Western blot analysis; type: cell-based; conditions: dose 1-10 µM, time 3-6 hrs
PANC-1 [4] = assay: Inhibition of colony formation in human PANC-1 cells in nutrient rich DMEM medium at 2.5 uM measured after 24 hrs by crystal violet staining based assay (reference value: 33%); type: functional
PANC-1 [5] = assay: Inhibition of PI3K/Akt/mTOR signaling in human PANC-1 cells assessed as decrease in PI3K p110alpha level at 1 to 10 uM by Western blot analysis; type: cell-based; conditions: dose 1-10 µM, time 3-6 hrs, TDE = time-dependent effect
PANC-1 [6] = assay: Inhibition of PI3K/Akt/mTOR signaling in human PANC-1 cells assessed as decrease in PI3K p110alpha level measured after 3 to 6 hrs by Western blot analysis; type: cell-based; conditions: dose microM 1-10, time hrs 3-6
PANC-1 [7] = assay: Inhibition of colony formation in human PANC-1 cells in nutrient rich DMEM medium at 10 uM measured after 24 hrs by crystal violet staining based assay (reference value: 33%); type: functional
PANC-1 [8] = assay: Inhibition of cell migration in human PANC1 cells assessed as open wound area at 5 uM cultured in nutrient rich DMEM medium measured after 12 hrs by quantitative real-time imaging based wound healing assay (reference value: 57.5%); type: functional; set-up: scale not given: the % may be the effect or the level left
PANC-1 [9] = assay: Inhibition of PI3K/Akt/mTOR signaling in human PANC-1 cells assessed as decrease in PI3K p110beta level measured after 3 to 6 hrs by Western blot analysis; type: cell-based; conditions: dose 1-10 µM, time 3-6 hrs
PANC-1 [10] = assay: Inhibition of PI3K/Akt/mTOR signaling in human PANC-1 cells assessed as decrease in mTOR level measured after 3 to 6 hrs by Western blot analysis; type: cell-based; conditions: dose 1-10 µM, time 3-6 hrs
PANC-1 [11] = assay: Inhibition of PI3K/Akt/mTOR signaling in human PANC-1 cells assessed as decrease in LC3-II level at 1 to 10 uM measured after 3 to 6 hrs by Western blot analysis; type: cell-based; conditions: dose 1-10 µM, time 3-6 hrs
PANC-1 [12] = assay: Inhibition of PI3K/Akt/mTOR signaling in human PANC-1 cells assessed as decrease in pmTOR S2481 level at 1 to 10 uM by Western blot analysis; type: cell-based; conditions: dose 1-10 µM, time 3-6 hrs, TDE = time-dependent effect
PANC-1 [13] = assay: Inhibition of PI3K/Akt/mTOR signaling in human PANC-1 cells assessed as decrease in pAkt at S473 level at 1 to 10 uM by Western blot analysis; type: cell-based; conditions: dose 1-10 µM, time 3-6 hrs, TDE = time-dependent effect
PANC-1 [14] = assay: Inhibition of PI3K/Akt/mTOR signaling in human PANC-1 cells assessed as decrease in pmTOR S2481 level measured after 3 to 6 hrs by Western blot analysis; type: cell-based; conditions: dose 1-10 µM, time 3-6 hrs
PANC-1 [15] = assay: Inhibition of cell migration in human PANC1 cells assessed as open wound area at 5 uM cultured in nutrient rich DMEM medium measured after 24 hrs by quantitative real-time imaging based wound healing assay (reference value: 15%); type: functional; set-up: scale not given: the % may be the effect or the level left
PANC-1 [16] = assay: Inhibition of PI3K/Akt/mTOR signaling in human PANC-1 cells assessed as decrease in mTOR level at 1 to 10 uM by Western blot analysis; type: cell-based; conditions: dose 1-10 µM, time 3-6 hrs, TDE = time-dependent effect
PANC-1 [17] = assay: Inhibition of colony formation in human PANC-1 cells in nutrient rich DMEM medium at 5 uM measured after 24 hrs by crystal violet staining based assay (reference value: 33%); type: functional
PANC-1 [18] = assay: Inhibition of colony formation in human PANC-1 cells in nutrient rich DMEM medium measured after 24 hrs by crystal violet staining based assay; type: functional, cell-based; conditions: dose microM 2.5-10, time 24.0 hrs
PANC-1 [19] = assay: Inhibition of PI3K/Akt/mTOR signaling in human PANC-1 cells assessed as decrease in Akt level at 1 to 10 uM by Western blot analysis; type: cell-based; conditions: dose 1-10 µM, time 3-6 hrs, TDE = time-dependent effect
PANC-1 [20] = assay: Inhibition of PI3K/Akt/mTOR signaling in human PANC-1 cells assessed as decrease in pAkt at S473 level measured after 3 to 6 hrs by Western blot analysis; type: cell-based; conditions: dose 1-10 µM, time 3-6 hrs
PANC-1 [21] = assay: Induction of cell morphological changes in human PANC-1 cells assessed as dead cells at 0.1 uM after 24 hrs in nutrient-deprived medium by ethidium bromide-acridine orange staining based fluorescence microscopic analysis; type: functional

Compound `COc1cc([C@H]2c3cc(O)c(OC)cc3C[C@H](C)[C@@H]2C)ccc1O` has a PC50 (PANC-1 [1]) of 88.3 µM.

Work on `CC(C)[C@@H]1C=C[C@@]2(C)OC3=C(C(=O)C(C)(C)C(=O)C3(C)C)[C@H](C(C)C)[C@H]2C1` yielded a PC50 (PANC-1 [1]) of 11.7 µM.

Work on `CC(C)[C@@H]1C=C[C@@]2(C)OC3=C(C(=O)C(C)(C)C(=O)C3(C)C)[C@@H](C(C)C)[C@H]2C1` yielded a PC50 (PANC-1 [1]) of 5 µM.

Work on `COc1cc(C[C@H]2C(=O)OC[C@@H]2Cc2ccc(OC)c(OC)c2)ccc1O` [ARCTIGENIN] yielded a PC50 (PANC-1 [1]) of 0.7 µM.

`CC(C)[C@@H]1C[C@]2(CC[C@]3(C(C)C)C[C@H]23)OC2=C1C(=O)C(C)(C)C(=O)C2(C)C` showed a PC50 (PANC-1 [1]) of 3.9 µM.

In the case of `COc1ccc(-c2cc(=O)c3c(O)c(C)c(OC)cc3o2)cc1`, the PC50 (PANC-1 [1]) is reported as 6.1 µM.

`CC(C)CC(=O)c1c(O)c([C@H](C2=C(O)C(C)(C)C(=O)C(C)(C)C2=O)C(C)C)c(O)c2c1O[C@]1(C)C=C[C@@H](C(C)C)C[C@H]21` was tested, and the inhibition (PANC-1 [2]) was “Tde”, the inhibition (PANC-1 [3]) was “Dose-dependent effect” and the inhibition at 2.5 µM (PANC-1 [4]) was 41%. For the same compound, the inhibition (PANC-1 [5]) was “Tde”, the inhibition (PANC-1 [6]) was “Dose-dependent effect” and the inhibition at 10 µM (PANC-1 [7]) was 80%. For the same compound, the Activity (PANC-1 [8]) was 95%, the inhibition (PANC-1 [9]) was “Dose-dependent effect” and the inhibition (PANC-1 [10]) was “Dose-dependent effect”. The inhibition (PANC-1 [11]) was “Active”, the PC50 (PANC-1 [1]) was 0.065 µM and the inhibition (PANC-1 [12]) was “Tde”. The inhibition (PANC-1 [13]) was “Tde”, the inhibition (PANC-1 [14]) was “Dose-dependent effect” and the Activity (PANC-1 [15]) was 92%. The inhibition (PANC-1 [16]) was “Tde”, the inhibition at 5 µM (PANC-1 [17]) was 63% and the inhibition (PANC-1 [18]) was “Dose-dependent effect”. The inhibition (PANC-1 [19]) was “Tde”, the inhibition (PANC-1 [20]) was “Dose-dependent effect” and the Activity (PANC-1 [21]) was “Active”.

In the case of `CC(C)=CCCC1=CCC2(C(=O)C(C)(C)C(=O)C(C)(C)C2=O)[C@@H](C(C)C)C1`, the PC50 (PANC-1 [1]) is reported as 0.02 µM.

`COc1ccc(-c2cc(=O)c3c(O)c(C)c(OC)c(C)c3o2)cc1` gave a PC50 (PANC-1 [1]) of 1 µM.

For `C=C1CC[C@H]2[C@@H](C(C)C)C3=C(O[C@]2(C)CC[C@@H]2[C@@H]1CC2(C)C)C(C)(C)C(=O)C(C)(C)C3=O`, the PC50 (PANC-1 [1]) was 28.1 µM.

With `CC(C)[C@H]1C[C@]2(CC[C@]3(C(C)C)C[C@H]23)OC2=C1C(=O)C(C)(C)C(=O)C2(C)C` the PC50 (PANC-1 [1]) was 10 µM.

For `CC(C)[C@@H]1C[C@]2(CC[C@H]3C[C@@H]2C3(C)C)OC2=C1C(=O)C(C)(C)C(=O)C2(C)C`, the PC50 (PANC-1 [1]) was 8 µM.

Compound `CC1(C)C=C2C(=O)C(C)(C)C(=O)C(C)(C)C2(O)OO1` (configuration not stated) [ENDOPEROXIDE HORMONE G3] has a PC50 (PANC-1 [1]) of 32.3 µM.

With `CCC(C)[C@H](C1=C(O)C(C)(C)C(=O)C(C)(C)C1=O)c1c(O)c(C(=O)CC(C)C)c(O)c2c1O[C@]1(C)C=C[C@@H](C(C)C)C[C@H]21` (some centres not stated) the PC50 (PANC-1 [1]) was 0.01 µM and the Activity (PANC-1 [21]) was “Active”.

`Oc1cc(O)c2c(c1)O[C@H](c1ccc(O)c(O)c1)[C@@H](O)C2` [CIANIDANOL] was tested, and the PC50 (PANC-1 [1]) was over 100 µM.

`CC(C)CC(=O)c1c(O)c2c(c3c1OC1(O)C(C(=O)C(C)(C)C(=O)C1(C)C)[C@@H]3C(C)C)OC1=C(C(=O)C(C)(C)C(=O)C1(C)C)[C@@H]2C(C)C` (some centres not stated) showed a PC50 (PANC-1 [1]) of 0.6 µM.
